According to ChEMBL document CHEMBL1671627, “Increasing trends in antimicrobial resistance among clinically important anaerobes and Bacteroides fragilis isolates causing nosocomial infections: emerging resistance to carbapenems” (2008):
≈ marks a conversion by molar mass, not a printed value.

What was measured:
Bacteroides fragilis [1] = assay: Antibacterial activity against Bacteroides fragilis assessed as susceptible isolates by CLSI agar dilution method; type: functional
Bacteroides fragilis [2] = assay: Antibacterial activity against Bacteroides fragilis assessed as resistant isolates by CLSI agar dilution method; type: functional
[3] = system: Bacteroides thetaiotaomicron; assay: Antibacterial activity against beta-lactamase producing Bacteroides thetaiotaomicron assessed as susceptible isolates by CLSI agar dilution method; type: functional
[4] = system: Bacteroides thetaiotaomicron; assay: Antibacterial activity against beta-lactamase producing Bacteroides thetaiotaomicron assessed as resistant isolates by CLSI agar dilution method; type: functional
Phocaeicola vulgatus [5] = assay: Antibacterial activity against beta-lactamase producing Bacteroides vulgatus by CLSI agar dilution method; type: functional
Phocaeicola vulgatus [6] = assay: Antibacterial activity against beta-lactamase producing Bacteroides vulgatus assessed as susceptible isolates by CLSI agar dilution method; type: functional
Phocaeicola vulgatus [7] = assay: Antibacterial activity against beta-lactamase producing Bacteroides vulgatus assessed as resistant isolates by CLSI agar dilution method; type: functional
Bacteroides uniformis [8] = assay: Antibacterial activity against beta-lactamase producing Bacteroides uniformis by CLSI agar dilution method; type: functional
Bacteroides uniformis [9] = assay: Antibacterial activity against beta-lactamase producing Bacteroides uniformis assessed as susceptible isolates by CLSI agar dilution method; type: functional
Bacteroides uniformis [10] = assay: Antibacterial activity against beta-lactamase producing Bacteroides uniformis assessed as resistant isolates by CLSI agar dilution method; type: functional
Bacteroides caccae [11] = assay: Antibacterial activity against beta-lactamase producing Bacteroides caccae by CLSI agar dilution method; type: functional
Bacteroides caccae [12] = assay: Antibacterial activity against beta-lactamase producing Bacteroides caccae assessed as susceptible isolates by CLSI agar dilution method; type: functional
Bacteroides caccae [13] = assay: Antibacterial activity against beta-lactamase producing Bacteroides caccae assessed as resistant isolates by CLSI agar dilution method; type: functional
Fusobacterium varium [14] = assay: Antibacterial activity against Fusobacterium varium by CLSI agar dilution method; type: functional
Fusobacterium nucleatum [15] = assay: Antibacterial activity against Fusobacterium nucleatum by CLSI agar dilution method; type: functional
Fusobacterium mortiferum [16] = assay: Antibacterial activity against Fusobacterium mortiferum by CLSI agar dilution method; type: functional
[17] = system: Fusobacterium necrophorum; assay: Antibacterial activity against Fusobacterium necrophorum by CLSI agar dilution method; type: functional
Fusobacterium varium [18] = assay: Antibacterial activity against Fusobacterium varium assessed as susceptible isolates by CLSI agar dilution method; type: functional
Fusobacterium nucleatum [19] = assay: Antibacterial activity against Fusobacterium nucleatum assessed as susceptible isolates by CLSI agar dilution method; type: functional
Fusobacterium mortiferum [20] = assay: Antibacterial activity against Fusobacterium mortiferum assessed as susceptible isolates by CLSI agar dilution method; type: functional
[21] = system: Fusobacterium necrophorum; assay: Antibacterial activity against Fusobacterium necrophorum assessed as susceptible isolates by CLSI agar dilution method; type: functional
Fusobacterium varium [22] = assay: Antibacterial activity against Fusobacterium varium assessed as resistant isolates by CLSI agar dilution method; type: functional
Fusobacterium nucleatum [23] = assay: Antibacterial activity against Fusobacterium nucleatum assessed as resistant isolates by CLSI agar dilution method; type: functional
Fusobacterium mortiferum [24] = assay: Antibacterial activity against Fusobacterium mortiferum assessed as resistant isolates by CLSI agar dilution method; type: functional
[25] = system: Fusobacterium necrophorum; assay: Antibacterial activity against Fusobacterium necrophorum assessed as resistant isolates by CLSI agar dilution method; type: functional
Prevotella buccae [26] = assay: Antibacterial activity against Prevotella buccae by CLSI agar dilution method; type: functional; conditions: Segatella buccae
Prevotella bivia [27] = assay: Antibacterial activity against Prevotella bivia by CLSI agar dilution method; type: functional
Prevotella intermedia [28] = assay: Antibacterial activity against Prevotella intermedia by CLSI agar dilution method; type: functional
[29] = system: Prevotella melaninogenica; assay: Antibacterial activity against Prevotella melaninogenica by CLSI agar dilution method; type: functional
Prevotella buccae [30] = assay: Antibacterial activity against Prevotella buccae assessed as susceptible isolates by CLSI agar dilution method; type: functional, Segatella buccae
Prevotella bivia [31] = assay: Antibacterial activity against Prevotella bivia assessed as susceptible isolates by CLSI agar dilution method; type: functional
Prevotella intermedia [32] = assay: Antibacterial activity against Prevotella intermedia assessed as susceptible isolates by CLSI agar dilution method; type: functional
[33] = system: Prevotella melaninogenica; assay: Antibacterial activity against Prevotella melaninogenica assessed as susceptible isolates by CLSI agar dilution method; type: functional
Prevotella buccae [34] = assay: Antibacterial activity against Prevotella buccae assessed as resistant isolates by CLSI agar dilution method; type: functional, Segatella buccae
Prevotella bivia [35] = assay: Antibacterial activity against Prevotella bivia assessed as resistant isolates by CLSI agar dilution method; type: functional
Prevotella intermedia [36] = assay: Antibacterial activity against Prevotella intermedia assessed as resistant isolates by CLSI agar dilution method; type: functional
[37] = system: Prevotella melaninogenica; assay: Antibacterial activity against Prevotella melaninogenica assessed as resistant isolates by CLSI agar dilution method; type: functional
Veillonella parvula = assay: Antibacterial activity against Veillonella parvula by CLSI agar dilution method; type: functional
Clostridium perfringens = assay: microbe, parasite or virus in culture; type: functional
[38] = system: Clostridium paraputrificum; assay: Antibacterial activity against beta-lactamase producing Clostridium paraputrificum by CLSI agar dilution method; type: functional
Clostridium septicum [39] = assay: Antibacterial activity against beta-lactamase producing Clostridium septicum by CLSI agar dilution method; type: functional
Clostridium tertium [40] = assay: Antibacterial activity against beta-lactamase producing Clostridium tertium by CLSI agar dilution method; type: functional
[41] = system: Clostridium paraputrificum; assay: Antibacterial activity against beta-lactamase producing Clostridium paraputrificum assessed as susceptible isolates by CLSI agar dilution method; type: functional
Clostridium septicum [42] = assay: Antibacterial activity against beta-lactamase producing Clostridium septicum assessed as susceptible isolates by CLSI agar dilution method; type: functional
Clostridium tertium [43] = assay: Antibacterial activity against beta-lactamase producing Clostridium tertium assessed as susceptible isolates by CLSI agar dilution method; type: functional
Bacteroides fragilis [44] = assay: Antibacterial activity against Bacteroides fragilis by CLSI agar dilution method; type: functional
[45] = system: Bacteroides thetaiotaomicron; assay: Antibacterial activity against beta-lactamase producing Bacteroides thetaiotaomicron by CLSI agar dilution method; type: functional
[46] = system: Clostridium paraputrificum; assay: Antibacterial activity against beta-lactamase producing Clostridium paraputrificum assessed as resistant isolates by CLSI agar dilution method; type: functional
Clostridium septicum [47] = assay: Antibacterial activity against beta-lactamase producing Clostridium septicum assessed as resistant isolates by CLSI agar dilution method; type: functional
Clostridium tertium [48] = assay: Antibacterial activity against beta-lactamase producing Clostridium tertium assessed as resistant isolates by CLSI agar dilution method; type: functional
[49] = system: Peptostreptococcus anaerobius; assay: Antibacterial activity against beta-lactamase producing Peptostreptococcus anaerobius by CLSI agar dilution method; type: functional
[50] = system: Peptostreptococcus anaerobius; assay: Antibacterial activity against beta-lactamase producing Peptostreptococcus anaerobius assessed as susceptible isolates by CLSI agar dilution method; type: functional
[51] = system: Peptostreptococcus anaerobius; assay: Antibacterial activity against beta-lactamase producing Peptostreptococcus anaerobius assessed as resistant isolates by CLSI agar dilution method; type: functional
Parvimonas micra [52] = assay: Antibacterial activity against beta-lactamase producing Micromonas micros by CLSI agar dilution method; type: functional
Parvimonas micra [53] = assay: Antibacterial activity against beta-lactamase producing Micromonas micros assessed as susceptible isolates by CLSI agar dilution method; type: functional
Parvimonas micra [54] = assay: Antibacterial activity against beta-lactamase producing Micromonas micros assessed as resistant isolates by CLSI agar dilution method; type: functional
[55] = system: Peptoniphilus asaccharolyticus; assay: Antibacterial activity against beta-lactamase producing Peptoniphilus asaccharolyticus by CLSI agar dilution method; type: functional
[56] = system: Peptoniphilus asaccharolyticus; assay: Antibacterial activity against beta-lactamase producing Peptoniphilus asaccharolyticus assessed as susceptible isolates by CLSI agar dilution method; type: functional
[57] = system: Peptoniphilus asaccharolyticus; assay: Antibacterial activity against beta-lactamase producing Peptoniphilus asaccharolyticus assessed as resistant isolates by CLSI agar dilution method; type: functional
Finegoldia magna [58] = assay: Antibacterial activity against beta-lactamase producing Finegoldia magna by CLSI agar dilution method; type: functional
Finegoldia magna [59] = assay: Antibacterial activity against beta-lactamase producing Finegoldia magna assessed as susceptible isolates by CLSI agar dilution method; type: functional
Finegoldia magna [60] = assay: Antibacterial activity against beta-lactamase producing Finegoldia magna assessed as resistant isolates by CLSI agar dilution method; type: functional

## CO[C@@]1(NC(=O)CSCC#N)C(=O)N2C(C(=O)O)=C(CSc3nnnn3C)CS[C@@H]21 [CEFMETAZOLE]
Bacteroides fragilis [1]
  Activity: 72%
Bacteroides fragilis [2]
  Activity: 13%
[3]
  Activity: 20%
[4]
  Activity: 17%
Phocaeicola vulgatus [5]
  MIC50: 32 µg/mL (≈ 67.9 µM)
  MIC90: 128 µg/mL (≈ 271 µM)
Phocaeicola vulgatus [6]
  Activity: 44%
Phocaeicola vulgatus [7]
  Activity: 30%
Bacteroides uniformis [8]
  MIC50: 32 µg/mL (≈ 67.9 µM)
  MIC90: 128 µg/mL (≈ 271 µM)
Bacteroides uniformis [9]
  Activity: 44%
Bacteroides uniformis [10]
  Activity: 30%
Bacteroides caccae [11]
  MIC50: 32 µg/mL (≈ 67.9 µM)
  MIC90: 128 µg/mL (≈ 271 µM)
Bacteroides caccae [12]
  Activity: 44%
Bacteroides caccae [13]
  Activity: 30%
Fusobacterium varium [14]
  MIC50: 1 µg/mL (≈ 2.12 µM)
  MIC90: 2 µg/mL (≈ 4.24 µM)
Fusobacterium nucleatum [15]
  MIC50: 1 µg/mL (≈ 2.12 µM)
  MIC90: 2 µg/mL (≈ 4.24 µM)
Fusobacterium mortiferum [16]
  MIC50: 1 µg/mL (≈ 2.12 µM)
  MIC90: 2 µg/mL (≈ 4.24 µM)
[17]
  MIC50: 1 µg/mL (≈ 2.12 µM)
  MIC90: 2 µg/mL (≈ 4.24 µM)
Fusobacterium varium [18]
  Activity: 100%
Fusobacterium nucleatum [19]
  Activity: 100%
Fusobacterium mortiferum [20]
  Activity: 100%
[21]
  Activity: 100%
Fusobacterium varium [22]
  Activity: 0%
Fusobacterium nucleatum [23]
  Activity: 0%
Fusobacterium mortiferum [24]
  Activity: 0%
[25]
  Activity: 0%
Prevotella buccae [26]
  MIC50: 2 µg/mL (≈ 4.24 µM)
  MIC90: 8 µg/mL (≈ 17 µM)
Prevotella bivia [27]
  MIC50: 2 µg/mL (≈ 4.24 µM)
  MIC90: 8 µg/mL (≈ 17 µM)
Prevotella intermedia [28]
  MIC50: 2 µg/mL (≈ 4.24 µM)
  MIC90: 8 µg/mL (≈ 17 µM)
[29]
  MIC50: 2 µg/mL (≈ 4.24 µM)
  MIC90: 8 µg/mL (≈ 17 µM)
Prevotella buccae [30]
  Activity: 94%
Prevotella bivia [31]
  Activity: 94%
Prevotella intermedia [32]
  Activity: 94%
[33]
  Activity: 94%
Prevotella buccae [34]
  Activity: 6%
Prevotella bivia [35]
  Activity: 6%
Prevotella intermedia [36]
  Activity: 6%
[37]
  Activity: 6%
Veillonella parvula
  MIC: > 0.25 µg/mL
Clostridium perfringens
  MIC50: 1 µg/mL (≈ 2.12 µM)
  MIC90: 16 µg/mL (≈ 33.9 µM)
[38]
  MIC50: 1 µg/mL (≈ 2.12 µM)
  MIC90: 16 µg/mL (≈ 33.9 µM)
Clostridium septicum [39]
  MIC50: 1 µg/mL (≈ 2.12 µM)
  MIC90: 16 µg/mL (≈ 33.9 µM)
Clostridium tertium [40]
  MIC50: 1 µg/mL (≈ 2.12 µM)
  MIC90: 16 µg/mL (≈ 33.9 µM)
[41]
  Activity: 89%
Clostridium septicum [42]
  Activity: 89%
Clostridium tertium [43]
  Activity: 89%
Bacteroides fragilis [44]
  MIC50: 16 µg/mL (≈ 33.9 µM)
  MIC90: 64 µg/mL (≈ 136 µM)
[45]
  MIC50: 32 µg/mL (≈ 67.9 µM)
  MIC90: 64 µg/mL (≈ 136 µM)
[46]
  Activity: 0%
Clostridium septicum [47]
  Activity: 0%
Clostridium tertium [48]
  Activity: 0%
[49]
  MIC50: 0.5 µg/mL (≈ 1.06 µM)
  MIC90: 8 µg/mL (≈ 17 µM)
[50]
  Activity: 97%
[51]
  Activity: 0%
Parvimonas micra [52]
  MIC50: 0.5 µg/mL (≈ 1.06 µM)
  MIC90: 8 µg/mL (≈ 17 µM)
Parvimonas micra [53]
  Activity: 97%
Parvimonas micra [54]
  Activity: 0%
[55]
  MIC50: 0.5 µg/mL (≈ 1.06 µM)
  MIC90: 8 µg/mL (≈ 17 µM)
[56]
  Activity: 97%
[57]
  Activity: 0%
Finegoldia magna [58]
  MIC50: 0.5 µg/mL (≈ 1.06 µM)
  MIC90: 8 µg/mL (≈ 17 µM)
Finegoldia magna [59]
  Activity: 97%
Finegoldia magna [60]
  Activity: 0%
